# From patent US5616606A, “Oligopeptide antiretroviral agents” (priority 1995, dated 1997)
# “And” between values parts separate entries of the source, which are not always exact repeats. Equal entries are not always repeated.
# Key:
# [1] = system: Moloney murine leukemia virus (MLV); assay: anti-Moloney murine leukemia virus (MLV) plaque test; format: cell-based; settings: anti-MLV plaque count
# [2] = system: HBV; assay: inhibition of HBV DNA replication in 2.2.15 cell cultures; format: cell-based; settings: for INT[…] DNA MONO. / INT[…] DNA RI: 24 hours following the 9th day of treatment; for INT[…] DNA MONO. / INT[…] DNA RI / HBV VIRION DNA DAY 0 / HBV VIRION DNA DAY 6 / HBV VIRION DNA DAY 9: single well
# [3] = system: HBV; settings: 9 μM; relative to average levels in untreated cells; typically observed (Korba and Milman, 1991); cited from earlier work
# [4] = system: SC-1 cells; assay: toxicity TD50 reported with the anti-MLV test; settings: Table IV
# [5] = system: 2.2.15 cells; assay: toxicity analysis, neutral red dye uptake in 2.2.15 cells; settings: triplicate, ± standard deviation
smiles,measurement,setting,value
"Nc1ccn([C@H]2CC[C@@H](CO)O2)c(=O)n1 [DDC, 2,3'-dideoxycytosine, reference compound]","Activity, MIC50",[1],0.74 µg/mL
same,INT[…] DNA MONO.,"[2]; 10 μM, listed as 2',3'-ddC",2.5 pg/μg CELL DNA and 2.0 pg/μg CELL DNA
same,INT[…] DNA RI,"[2]; 10 μM, listed as 2',3'-ddC",9 pg/μg CELL DNA and 7 pg/μg CELL DNA and 8 pg/μg CELL DNA and 5 pg/μg CELL DNA
same,HBV VIRION DNA DAY 0,"[2]; 10 μM, listed as 2',3'-ddC",63 pg/ml CULTURE MEDIUM and 66 pg/ml CULTURE MEDIUM and 78 pg/ml CULTURE MEDIUM and 68 pg/ml CULTURE MEDIUM
same,HBV VIRION DNA DAY 6,"[2]; 10 μM, listed as 2',3'-ddC",43 pg/ml CULTURE MEDIUM and 47 pg/ml CULTURE MEDIUM and 54 pg/ml CULTURE MEDIUM and 45 pg/ml CULTURE MEDIUM
same,HBV VIRION DNA DAY 9,"[2]; 10 μM, listed as 2',3'-ddC",7 pg/ml CULTURE MEDIUM and 5 pg/ml CULTURE MEDIUM and 6 pg/ml CULTURE MEDIUM and 8 pg/ml CULTURE MEDIUM
same,INT[…] DNA MONO.,"[2]; 50 μM, listed as 2',3'-ddC",1.2 pg/μg CELL DNA and 1.4 pg/μg CELL DNA and 1.8 pg/μg CELL DNA and 1.7 pg/μg CELL DNA
same,INT[…] DNA RI,"[2]; 50 μM, listed as 2',3'-ddC",2 pg/μg CELL DNA and 1 pg/μg CELL DNA
same,HBV VIRION DNA DAY 0,"[2]; 50 μM, listed as 2',3'-ddC",57 pg/ml CULTURE MEDIUM and 51 pg/ml CULTURE MEDIUM and 58 pg/ml CULTURE MEDIUM and 59 pg/ml CULTURE MEDIUM
same,HBV VIRION DNA DAY 6,"[2]; 50 μM, listed as 2',3'-ddC",26 pg/ml CULTURE MEDIUM and 28 pg/ml CULTURE MEDIUM and 30 pg/ml CULTURE MEDIUM and 20 pg/ml CULTURE MEDIUM
same,HBV VIRION DNA DAY 9,"[2]; 50 μM, zero = undetectable, cutoff 0.1 pg/ml",0 pg/ml CULTURE MEDIUM
same,effect on HBV replication (in words),"[2]; tested at 50 and 10 μM, compared with 2',3'-ddC",significant depressions of HBV DNA replication
same,depression of HBV RI,[3],90%
same,"Toxicity, TD50",[4],> 100.00 ug/mL^-1
same,NEUTRAL RED DYE UPTAKE,[5]; 10 μg/ml,99 ± 1 % OF CONTROL
same,NEUTRAL RED DYE UPTAKE,[5]; 30 μg/ml,100 ± 1 % OF CONTROL
same,NEUTRAL RED DYE UPTAKE,[5]; 100 μg/ml,89 ± 3 % OF CONTROL
same,NEUTRAL RED DYE UPTAKE,[5]; 300 μg/ml,17 ± 2 % OF CONTROL
